Experimental data taken from patent publication US10786690B2, “Amide derivatives of polycaffeoylquinic acids, process for producing same and uses thereof” (TEMISIS, priority 2016, dated 2020).

Experiments:
[1] = system: LTB4; test: LTB4 production by NHEKs in the inflammatory state (arachidonic acid + calcium ionophore), ELISA; assay type: cell-based, human; details: arachidonic acid 1 μM + calcium ionophore A23187 2 h, compounds 50 μM, NDGA 2 μM, relative to induced control
Procedure: The study was carried out on Normal Human Epidermal Keratinocytes (NHEKs) (Lonza, CC-2507, origin: foreskin) in monolayer culture in Epilife medium (Invitrogen, M-EPI-500-A) containing the components of the Human Keratinocyte Growth Supplement (HKGS) mixture (Invitrogen, S-001-K) added separately, except hydrocortisone having anti-inflammatory properties.
The induction of LTB4 production having a very fast kinetics, the scheme was adapted. In this case, the inflammatory state was induced for 2 h by applying arachidonic acid (a.a./1 μM/ethanol) combined with calcium ionophore A23187 (2 μM/DMSO). Nordihydroguaiaretic acid (NDGA) was used as reference molecule (2 μM/ethanol).
The effect of the compounds was studied by applying them to the keratinocyte culture medium 2 h prior to induction of the inflammatory state as well as during induction (2 h for LTB4, 24 h for IL-8, PGE2, IL-6 and TNF-α).
Each condition was carried out in triplicate cultures and the supernatants were recovered at the end of the various treatments.
Quantification of the various inflammatory mediators was carried out with specific kits, based on a standard curve, according to the instructions provided by the kits' suppliers, R&D Systems and Cayman Chemical.
Before induction of the inflammatory state, the NHEKs were treated with the compounds and reference molecules for 2 h. The inflammatory state was then induced according to the conditions described in the methodology section, the culture supernatants were collected, and the various inflammatory mediators were quantified by the ELISA technique.
The effects of the compounds on LTB4 production are shown in FIG. 8 and are expressed as a percentage of the treatment with arachidonic acid (a.a.) combined with calcium ionophore A23187 set at 100%.

[2] = system: female SKH-1 hairless mice; test: TPA-induced skin inflammation in female SKH-1 hairless mice, macroscopic visual scoring; assay type: in vivo
Procedure: The study is performed on 18 female SKH-1 hairless mice, weighing roughly 20-25 g and divided into 3 groups (n=6/housed in pairs) under controlled temperature (24±2° C.) and humidity (50±20%) conditions and with a 12-hour reversed light cycle (light from 21:00 to 09:00) (food and water ad libitum).
The compounds to be tested are as follows: • Excipial® ointment (control) • PAT1657 (octyl-isochlorogenamide A) incorporated at 1.33% or 2.67% by mass in Excipial® ointment
The treatment groups are distributed as follows: • G1: induced skin inflammation+daily treatment with vehicle (Excipial® ointment) (Control), • G2: induced skin inflammation+treatment with PAT1657 incorporated at 1.33% by mass in Excipial® ointment (PAT1657/1.33%), • G3: induced skin inflammation+treatment with PAT1657 incorporated at 2.67% by mass in Excipial® ointment (PAT1657/2.67%). Induction and Maintenance of Skin Inflammation
Skin inflammation is induced for each mouse by daily dorsal cutaneous application to Zone A (FIG. 9) for 7 days (day 1 to day 7) of 100 μL of TPA acetone solution at a concentration of 0.2 mg/ml.
It is then maintained by cutaneous application every 2 days for 7 days (day 8 to day 14) of 100 μl of TPA acetone solution.
For the vehicle, the animals (G1) were treated daily by cutaneous application of 0.125 g of ointment on the backs of the mice just off the zone of application of TPA acetone solution (roughly 5 cm^2 area corresponding to zones A and B shown in FIG. 9), for 7 days from day 8 to day 14.
For compound PAT1657, the animals (G2 and G3) were treated by cutaneous application of 0.125 g of ointment on the backs of the mice just off the zone of application of TPA acetone solution (roughly 5 cm^2 area corresponding to zones A and B shown in FIG. 9), on days 8, 11 and 14.
Macroscopic visual scoring of skin inflammation is performed daily for each mouse from day 8 to day 15 by quantifying it according to the following scale (Guenon-Macé et al., 2015):
Macroscopic visual scoring of skin inflammation makes it possible to quantify the following parameters: • degree of skin inflammation in the TPA acetone solution application zone and in the ointment treatment zone corresponding to zone A in FIG. 9, • degree of skin inflammation in the ointment treatment zone and outside the TPA acetone solution application zone corresponding to zone B in FIG. 9, • degree of skin inflammation on the rest of the back corresponding to zone C in FIG. 9, • Overall macroscopic score of skin inflammation (total of the scores of the three zones A, B and C shown in FIG. 9). Result Animal Mortality

[3] = PAT1657 at 1.33% and 2.67% in Excipial ointment, relative to control, from day 10 onwards

CCCCCCCCNC(=O)[C@]1(O)C[C@@H](OC(=O)/C=C/c2ccc(O)c(O)c2)[C@@H](O)[C@H](OC(=O)/C=C/c2ccc(O)c(O)c2)C1 [PAT1657, (2E,2′E)-((1R,2S,3R,5S)-2,5-dihydroxy-5-(octylcarbamoyl)cyclohexane-1,3-diyl) bis(3-(3,4-dihydroxyphenyl)acrylate)]
LTB4 production [1]: block/decrease, in a very highly significant manner | degree of skin inflammation, zone A (TPA application zone and treatment zone) ([2]; PAT1657 at 1.33% and 2.67% in Excipial ointment, cutaneous, days 8, 11, 14, relative to control, from day 13 onwards): significant decrease | degree of skin inflammation, zone C (rest of the back) [2, 3]: significant decrease | overall degree of skin inflammation (zones A, B and C) [2, 3]: significant decrease | degree of skin inflammation, zone B (treatment zone outside TPA application zone) ([2]; PAT1657 at 1.33% and 2.67% in Excipial ointment, relative to control, from day 13 onwards): significant decrease | reaction to application of the products ([2]; SKH-1 mice, cutaneous application of ointments): No reaction was observed | intensity of skin inflammation from a macroscopic point of view ([2]; two doses, cutaneous application every 3 days, curative treatment, dose-dependent effect): significantly reduced
